Measurements: EP4273147A1, “SUBSTITUTED SPIROLACTAMS, SALTS THEREOF AND THEIR USE AS HERBICIDALLY ACTIVE SUBSTANCES” (Bayer Aktiengesellschaft, priority 2022, dated 2023)

Experiments:
[1] = tested on: LOLRI; assay: Herbicidal pre-emergence action, section C (Table C7); format: in vivo, Lolium rigidum; conditions: application rate 320 g/ha; visual grading after ca. 3 weeks
Text: (§4) Seeds of mono- and dicotyledonous weed plants and crop plants were sown, in plastic or organic planting pots, in sandy loam and covered with soil. The compounds according to the invention, formulated in the form of wettable powders (WP) or as emulsifiable concentrates (EC), were applied to the surface of the covering soil as aqueous suspension or emulsion, with the addition of 0.5% of an additive, at an application rate of 600 1 of water/ha (converted). Following treatment, the pots were placed in a greenhouse and kept under optimum growth conditions for the test plants.

[2] = tested on: LOLRI; assay: Herbicidal pre-emergence action (Table A3); format: in vivo, Lolium rigidum; conditions: visual grading after ca. 3 weeks
Text: (§1) Seeds of mono- and dicotyledonous weed plants were sown in plastic pots (double sowings with one species of mono- and one species of dicotyledonous weed plants per pot), in sandy loam, and covered with soil.

[3] = tested on: TRZAS; assay: Pre-emergence effects on crop plants (Table D2); format: in vivo, Triticum aestivum; conditions: crop plant, visual grading after ca. 3 weeks
[4] = tested on: ECHCG; assay: Herbicidal post-emergence action (Table B3); format: in vivo, Echinochloa crus-galli; conditions: application rate 1280 g/ha, rated visually after about 3 weeks
Experimental: (§2) Seeds of mono- and dicotyledonous weed plants were placed in plastic pots in sandy loam soil (doubly sown with in each case one species of mono- or dicotyledonous weed plants per pot), covered with soil and cultivated in a greenhouse under controlled growth conditions. 2 to 3 weeks after sowing, the test plants were treated at the one-leaf stage. […] After the test plants had been kept in the greenhouse under optimum growth conditions for about 3 weeks, the activity of the preparations was rated visually in comparison to untreated controls. For example, 100% activity = the plants have died, 0% activity = like control plants.

[5] = tested on: TRZAS; assay: Post-emergence effects on crop plants (Table F2); format: in vivo, Triticum aestivum; conditions: application rate 320 g/ha, crop plant TRZAS
Text: (§3) 2 to 3 weeks after sowing, the test plants were sprayed in the single-leaf stage.

[6] = tested on: DIGSA; assay: Herbicidal pre-emergence action, section C (Table C5); format: in vivo, Digitaria sanguinalis; conditions: application rate 320 g/ha; visual grading after ca. 3 weeks
[7] = tested on: SETVI; assay: Herbicidal pre-emergence action, section C (Table C10); format: in vivo, Setaria viridis; conditions: visual grading after ca. 3 weeks
[8] = tested on: ORYZA; assay: Pre-emergence effects on crop plants (Table D3); conditions: crop plant, visual grading after ca. 3 weeks
[9] = tested on: VIOTR; assay: Herbicidal pre-emergence action, section C (Table C12); format: in vivo, Viola tricolor; conditions: visual grading after ca. 3 weeks
Text: as §4

[10] = tested on: SETVI; assay: Herbicidal pre-emergence action (Table A5); format: in vivo, Setaria viridis; conditions: visual grading after ca. 3 weeks
Text: as §1

[11] = tested on: STEME; assay: Herbicidal pre-emergence action (Table A6); format: in vivo, Stellaria media; conditions: visual grading after ca. 3 weeks
Text: as §1

[12] = tested on: BRSNW; assay: Post-emergence effects on crop plants (Table F5); format: in vivo, Brassica napus; conditions: crop plant BRSNW
Text: as §3

[13] = tested on: ORYZA; assay: Post-emergence effects on crop plants (Table F3); format: in vivo, Oryza sativa; conditions: application rate 320 g/ha, crop plant ORYZA
Text: as §3

[14] = tested on: DIGSA; assay: Herbicidal pre-emergence action (Table A12); format: in vivo, Digitaria sanguinalis; conditions: visual grading after ca. 3 weeks
Text: as §1

[15] = tested on: ECHCG; assay: Herbicidal pre-emergence action (Table A2); format: in vivo, Echinochloa crus-galli; conditions: visual grading after ca. 3 weeks
Text: as §1

[16] = tested on: VERPE; assay: Herbicidal pre-emergence action (Table A11); format: in vivo, Veronica persica; conditions: application rate 1280 g/ha; visual grading after ca. 3 weeks
Text: as §1

[17] = tested on: GLXMA; assay: Pre-emergence effects on crop plants (Table D4); format: in vivo, Glycine max; conditions: crop plant, visual grading after ca. 3 weeks
[18] = tested on: ZEAMX; assay: Post-emergence effects on crop plants (Table F1); format: in vivo, Zea mays; conditions: application rate 320 g/ha, crop plant ZEAMX
Text: as §3

[19] = tested on: POAAN; assay: Herbicidal pre-emergence action (Table A7); format: in vivo, Poa annua; conditions: visual grading after ca. 3 weeks
Text: as §1

[20] = tested on: POAAN; assay: Herbicidal post-emergence action (Table B7); format: in vivo, Poa annua; conditions: application rate 1280 g/ha
Experimental: as §2

[21] = tested on: ECHCG; assay: Herbicidal pre-emergence action, section C (Table C6); format: in vivo, Echinochloa crus-galli; conditions: visual grading after ca. 3 weeks
[22] = tested on: ALOMY; assay: Herbicidal pre-emergence action, section C (Table C2); format: in vivo, Alopecurus myosuroides; conditions: application rate 320 g/ha; visual grading after ca. 3 weeks
[23] = tested on: MATIN; assay: Herbicidal pre-emergence action (Table A4); format: in vivo, Matricaria inodora; conditions: application rate 1280 g/ha; visual grading after ca. 3 weeks
Text: as §1

[24] = tested on: ZEAMX; assay: Pre-emergence effects on crop plants (Table D1); format: in vivo, Zea mays; conditions: crop plant, visual grading after ca. 3 weeks
[25] = tested on: ALOMY; assay: Herbicidal pre-emergence action (Table A9); format: in vivo, Alopecurus myosuroides; conditions: application rate 1280 g/ha; visual grading after ca. 3 weeks
Text: as §1

[26] = tested on: VERPE; assay: Herbicidal pre-emergence action, section C (Table C11); format: in vivo, Veronica persica; conditions: application rate 320 g/ha; visual grading after ca. 3 weeks
[27] = tested on: BRSNW; assay: Pre-emergence effects on crop plants (Table D5); format: in vivo, Brassica napus; conditions: crop plant, visual grading after ca. 3 weeks
[28] = tested on: ECHCG; assay: Herbicidal post-emergence action, section E (Table E5); format: in vivo, Echinochloa crus-galli; conditions: application rate 320 g/ha; assessed visually after ca. 3 weeks
Text: as §3

[29] = tested on: SETVI; assay: Herbicidal post-emergence action (Table B8); format: in vivo, Setaria viridis
Experimental: as §2

[30] = tested on: KCHSC; assay: Herbicidal pre-emergence action (Table A10); format: in vivo, Kochia scoparia; conditions: visual grading after ca. 3 weeks
Text: as §1

[31] = tested on: GLXMA; assay: Post-emergence effects on crop plants (Table F4); format: in vivo, Glycine max; conditions: crop plant GLXMA
Text: as §3

Row | Compound | post-emergence activity against ECHCG [4] [%] | post-emergence activity against TRZAS [5] [%] | pre-emergence activity against SETVI ([7]; application rate 320 g/ha) [%] | pre-emergence activity against STEME ([11]; application rate 1280 g/ha) [%] | post-emergence activity against ORYZA [13] [%] | pre-emergence activity against ECHCG ([15]; application rate 320 g/ha) [%] | pre-emergence activity against VERPE [16] [%] | post-emergence activity against ZEAMX [18] [%] | pre-emergence activity against POAAN ([19]; application rate 320 g/ha) [%] | post-emergence activity against POAAN [20] [%] | pre-emergence activity against ALOMY [22] [%] | pre-emergence activity against MATIN [23] [%] | pre-emergence activity against ALOMY [25] [%] | pre-emergence activity against LOLRI ([2]; application rate 320 g/ha) [%] | pre-emergence activity against SETVI ([10]; application rate 320 g/ha) [%] | post-emergence activity against BRSNW ([12]; application rate 320 g/ha) [%] | pre-emergence activity against GLXMA ([17]; application rate 320 g/ha) [%] | pre-emergence activity against ECHCG ([21]; application rate 320 g/ha) [%] | pre-emergence activity against POAAN ([19]; application rate 1280 g/ha) [%] | further results
1 | O=C1N(Cc2ccccc2F)CCCC12CCN(Cc1ccccc1Cl)C2=O (racemic) [I-027] | 90 | 0 | 100 | 90 | 0 | 100 | 90 | 0 | 100 | 90 | 100 | 90 | 90 |  |  |  |  |  |  | pre-emergence activity against LOLRI [1]: 90%; pre-emergence activity against LOLRI ([2]; application rate 1280 g/ha): 100%; pre-emergence activity against TRZAS ([3]; application rate 320 g/ha): 0%; pre-emergence activity against DIGSA [6]: 100%; pre-emergence activity against ORYZA ([8]; application rate 320 g/ha): 0%; pre-emergence activity against VIOTR ([9]; application rate 80 g/ha): 90%; pre-emergence activity against SETVI ([10]; application rate 1280 g/ha): 100%; post-emergence activity against BRSNW ([12]; application rate 80 g/ha): 20%; pre-emergence activity against DIGSA ([14]; application rate 320 g/ha): 90%; pre-emergence activity against GLXMA ([17]; application rate 80 g/ha): 0%; pre-emergence activity against ECHCG ([21]; application rate 80 g/ha): 100%; pre-emergence activity against ZEAMX ([24]; application rate 320 g/ha): 0%; pre-emergence activity against VERPE [26]: 90%
2 | Cc1ccccc1CN1CCCC2(CCCN(Cc3ccccc3F)C2=O)C1=O (racemic) [I-044] | 90 | 10 |  |  | 0 | 100 |  | 0 | 90 | 90 | 80 | 100 | 90 | 100 | 90 | 0 | 0 | 100 |  | pre-emergence activity against TRZAS ([3]; application rate 80 g/ha): 0%; pre-emergence activity against SETVI ([7]; application rate 80 g/ha): 100%; pre-emergence activity against STEME ([11]; application rate 320 g/ha): 90%; pre-emergence activity against BRSNW ([27]; application rate 320 g/ha): 0%; post-emergence activity against ECHCG [28]: 80%; pre-emergence activity against ZEAMX ([24]; application rate 80 g/ha): 0%
3 | Cc1ccccc1CN1CCCC2(CCCN(Cc3c(F)cccc3F)C2=O)C1=O (racemic) [I-051] | 90 |  |  |  |  | 100 | 90 |  |  | 90 |  |  | 90 | 100 | 100 |  |  |  | 90 | post-emergence activity against SETVI ([29]; application rate 1280 g/ha): 90%
4 | COc1ccccc1CN1CCCC2(CCCN(Cc3ccccc3F)C2=O)C1=O (racemic) [I-061] | 90 | 0 | 100 |  | 0 | 100 |  | 0 | 100 | 90 | 80 | 90 | 90 | 100 | 100 | 0 | 0 | 100 |  | pre-emergence activity against ORYZA ([8]; application rate 80 g/ha): 0%; pre-emergence activity against BRSNW ([27]; application rate 320 g/ha): 0%; post-emergence activity against ECHCG [28]: 80%; pre-emergence activity against ZEAMX ([24]; application rate 80 g/ha): 0%
5 | O=C1N(Cc2ccsc2)CCCC12CCCN(Cc1cccc(F)c1F)C2=O (racemic) [I-072] |  | 0 |  | 90 | 0 | 100 |  | 0 |  |  | 80 | 90 |  | 100 |  | 0 |  | 100 | 90 | pre-emergence activity against TRZAS ([3]; application rate 80 g/ha): 10%; pre-emergence activity against KCHSC ([30]; application rate 320 g/ha): 90%; pre-emergence activity against SETVI ([7]; application rate 80 g/ha): 100%; pre-emergence activity against SETVI ([10]; application rate 1280 g/ha): 90%; pre-emergence activity against GLXMA ([17]; application rate 80 g/ha): 0%; pre-emergence activity against BRSNW ([27]; application rate 80 g/ha): 20%; post-emergence activity against GLXMA ([31]; application rate 320 g/ha): 0%
6 | O=C1N(Cc2ccc(F)c(F)c2F)CCCC12CCCN(Cc1ccc(F)c(F)c1F)C2=O (racemic) [I-189, 2,8-bis(2,3,4-trifluorophenylmethyl)-2,8-diazaspiro[5.5]undecane-1,7-dione] |  |  |  | 90 |  | 100 |  |  |  |  |  | 90 | 100 |  | 100 |  |  |  |  | pest or weed control at 1280 g/ha ([2]; Lolium rigidum, pre-emergence, 504 h, application rate 1280 g/ha, read-out: pre-emergence activity against LOLRI): 100%; pest or weed control at 1280 g/ha ([4]; Echinochloa crus-galli, post-emergence, 504 h, read-out: post-emergence activity against ECHCG): 90%; pre-emergence activity against KCHSC ([30]; application rate 1280 g/ha): 100%; pre-emergence activity against DIGSA ([14]; application rate 320 g/ha): 90%; pest or weed control at 320 g/ha ([19]; Poa annua, pre-emergence, 504 h, application rate 320 g/ha, read-out: pre-emergence activity against POAAN): 100%; post-emergence activity against SETVI ([29]; application rate 320 g/ha): 90%
7 | CC(c1c(F)cccc1F)N1CCCC2(CCCN(C(C)c3c(F)cccc3F)C2=O)C1=O (stereo not drawn) [I-074] |  | 0 | 90 |  | 0 |  | 90 | 0 |  |  | 80 |  | 90 |  | 90 | 0 | 0 |  | 100 | pre-emergence activity against LOLRI ([2]; application rate 1280 g/ha): 90%; pre-emergence activity against TRZAS ([3]; application rate 320 g/ha): 20%; pre-emergence activity against DIGSA [6]: 100%; pre-emergence activity against VIOTR ([9]; application rate 320 g/ha): 90%; pre-emergence activity against STEME ([11]; application rate 320 g/ha): 90%; pre-emergence activity against DIGSA ([14]; application rate 1280 g/ha): 90%; pre-emergence activity against ECHCG ([15]; application rate 1280 g/ha): 90%; pre-emergence activity against BRSNW ([27]; application rate 80 g/ha): 0%; post-emergence activity against GLXMA ([31]; application rate 80 g/ha): 0%; pre-emergence activity against ZEAMX ([24]; application rate 320 g/ha): 0%
